Series [1] is described as follows: Cytotoxicity against HeLa cells by MTS assay. The note with it: human. The format is cell-based.
Series [2] concerns Norovirus. Description: Inhibition of norovirus recombinant VA387 binding to human HBGA B antigen by EIA. The format is functional.
The subject of series [3] is Norovirus. Nature of the series: Inhibition of recombinant norovirus MOH binding to human HBGA A antigen by EIA. It counts as functional.
The test system of series [4] is Norovirus. Nature of the series: Inhibition of recombinant norovirus Norwalk binding to human HBGA H antigen by EIA. The format is functional.
The test system of series [5] is Norovirus. Description: Inhibition of recombinant norovirus VA387 binding to human HBGA H antigen by EIA. It counts as functional.
For series [6], the system named is Norovirus. Description: Inhibition of recombinant norovirus Norwalk binding to human HBGA A antigen by EIA. It counts as functional.
Series [7] deals with Norovirus. Nature of the series: Inhibition of norovirus VA387 binding to HBGA A type antigen in human saliva at 10.9 uM by EIA. The format is functional.
Series [8] has as its system Norovirus. Description: Inhibition of recombinant norovirus MOH binding to human HBGA B antigen by EIA. It counts as functional.
Series [9] deals with Norovirus. Nature of the series: Inhibition of recombinant norovirus VA207 binding to human HBGA Le antigen by EIA. The format is functional.
Series [10] is described as follows: Solubility of the compound. The format is physicochemical.
The test system of series [11] is Norovirus. Description: Inhibition of recombinant norovirus VA387 binding to human HBGA A antigen by EIA. It counts as functional.
Series [12] concerns Norovirus. Description: Inhibition of norovirus VA387 binding to HBGA A type antigen in human saliva at 2.2 uM by EIA. The format is functional.
Series [13] has as its system Norovirus. Description: Inhibition of norovirus VA387 binding to HBGA A type antigen in human saliva at 13.7 uM by EIA. The format is functional.
In series [14] the test system is Norovirus. Nature of the series: Inhibition of norovirus VA387 binding to HBGA A type antigen in human saliva at 11.7 uM by EIA. The format is functional.
The test system of series [15] is Norovirus. Nature of the series: Inhibition of norovirus VA387 binding to HBGA A type antigen in human saliva at 11.8 uM by EIA. It counts as functional.
Series [16] has as its system Norovirus. Description: Inhibition of norovirus VA387 binding to HBGA A type antigen in human saliva at 9.3 uM by EIA. It counts as functional.
Series [17] relates to Norovirus. Description: Inhibition of norovirus VA387 binding to HBGA A type antigen in human saliva at 12.8 uM by EIA. The format is functional.
For series [18], the system named is Norovirus. Description: Inhibition of norovirus VA387 binding to HBGA A type antigen in human saliva at 13.6 uM by EIA. The format is functional.
Series [19] deals with Norovirus. Nature of the series: Inhibition of norovirus VA387 binding to HBGA A type antigen in human saliva at 4.8 uM by EIA. The format is functional.
The subject of series [20] is Norovirus. Description: Inhibition of norovirus VA387 binding to HBGA A type antigen in human saliva at 9.1 uM by EIA. The format is functional.
The subject of series [21] is Norovirus. Description: Inhibition of norovirus VA387 binding to HBGA A type antigen in human saliva at 9.6 uM by EIA. The format is functional.
The subject of series [22] is Norovirus. Nature of the series: Inhibition of norovirus VA387 binding to HBGA A type antigen in human saliva at 8.1 uM by EIA. The format is functional.

Values after ≈ are worked out from the molar mass of the structure shown. A value given as a limit tells only on which side of the number the result lay.

This is an account of results in ChEMBL document CHEMBL1142143, “Library screen for inhibitors targeting norovirus binding to histo-blood group antigen receptors” (Antimicrob Agents Chemother, 2007).

By CC50 is commonly meant the concentration giving 50% cytotoxicity. The low end stands for harm at low concentration, the high end for better tolerance by the cells. For orientation: EC50 means the concentration that produces a half-maximal response. What is called inhibition is the percentage by which the read-out fell short of the control. In general, solubility refers to the concentration that dissolves in the medium under given conditions. Read a high solubility as much dissolved substance.

In turn, `O=C(/C=C/c1ccc(-c2cc(Cl)cc(Cl)c2)o1)c1cccs1` returned a CC50 in series [1] of 157 µM. In addition, the EC50 with Norovirus [2], with Norovirus [3], in the series with Norovirus [4], in the series on Norovirus [5], with Norovirus [6] and in the series on Norovirus [8] was over 100 µM in each case. In addition, the figures for the EC50 in the series on Norovirus [9] and in the series with Norovirus [11] were over 100 µM and 10.9 µM, respectively. This compound registered an inhibition at 10.9 µM in the series with Norovirus [7] of 49%. Also, the solubility in [10] amounted to 400 µM (≈ 140 µg/mL).
In the case of `CCC[n+]1cc(-c2ccccc2)nc(N2CCOCC2)n1.[I-]`, the CC50 in series [1] was 158 µM. Also, the EC50 is 5.8 µM with Norovirus [2]; over 100 µM with Norovirus [3]; 18.9 µM in the series with Norovirus [4]; 6.8 µM in the series on Norovirus [5]; 15.6 µM in the series with Norovirus [6]; over 100 µM in the series with Norovirus [8]. In addition, the EC50 in the series with Norovirus [9] is over 100 µM; with Norovirus [11], 2.2 µM. Also, the concentration in solution in [10] (solubility) came to 400 µM. The inhibition at 2.2 µM in the series on Norovirus [12] was determined as 49.3%.
As to `CCCOc1ccc(-c2cc(C(=O)N/N=C/c3ccc(OCC)cc3)[nH]n2)cc1`, in series [1], it took 12.3 µM to reach half-maximal cytotoxicity (CC50). For the same compound, the EC50 with Norovirus [2], with Norovirus [3], with Norovirus [4], in the series on Norovirus [5], in the series on Norovirus [6] and with Norovirus [8] was over 100 µM each time. Further, the figures for the EC50 with Norovirus [9] and with Norovirus [11] were over 100 µM and 13.7 µM, respectively. The compound further registered a solubility in series [10] of over 100 µM. The compound further came in with an inhibition at 13.7 µM in the series on Norovirus [13] of 51.1%.
The compound `Cc1ccc(NC(=O)CC(c2ccccc2)c2ccccc2)cc1C` came in with a CC50 in series [1] of 40.3 µM. Also, the EC50 was over 100 µM in the series on Norovirus [2]; over 100 µM with Norovirus [3]; over 100 µM with Norovirus [4]; 47.5 µM with Norovirus [5]; over 100 µM in the series on Norovirus [6]; over 100 µM in the series on Norovirus [8]. For the same compound, the EC50 is over 100 µM in the series on Norovirus [9] and 11.7 µM in the series on Norovirus [11]. This compound had a solubility in series [10] of over 100 µM. Also, at 11.7 µM the inhibition with Norovirus [14] was 51.4%.
The compound `CC(C)OC(=O)CC(=O)CSc1nc(-c2ccc(F)cc2)cc(-c2cccs2)c1C#N` registered a CC50 in series [1] of 220 µM. For the same compound, the EC50 is 7.9 µM in the series on Norovirus [2]; over 100 µM with Norovirus [3]; 19.8 µM in the series with Norovirus [4]; 7.5 µM in the series with Norovirus [5]; 35 µM with Norovirus [6]; over 100 µM in the series with Norovirus [8]. In addition, the EC50 was over 100 µM in the series with Norovirus [9] and 11.8 µM in the series with Norovirus [11]. Further, in the series on Norovirus [15], 11.8 µM produced 50.9% inhibition. Besides, the solubility in [10] came to 400 µM (≈ 182 µg/mL).
For the compound `O=CC(=O)c1ccc2c(c1)Cc1cc(C(=O)C=O)ccc1-2`, in series [1], it took 52.7 µM to reach half-maximal cytotoxicity (CC50). In addition, the EC50 is 44.6 µM in the series with Norovirus [2]; over 100 µM in the series with Norovirus [3]; over 100 µM in the series with Norovirus [4]; 41.1 µM in the series with Norovirus [5]; over 100 µM in the series with Norovirus [6]; over 100 µM in the series on Norovirus [8]. In addition, the figures for the EC50 in the series on Norovirus [9] and in the series on Norovirus [11] were over 100 µM and 9.3 µM, respectively. The same compound yielded an inhibition at 9.3 µM in the series with Norovirus [16] of 53.8%. Besides, the concentration in solution in series [10] (solubility) came to 400 µM (≈ 111 µg/mL).
Compound `CCCCc1ccc(NC(=O)c2ccc(C)cc2)cc1` showed a CC50 in series [1] of 180 µM. Besides, the EC50 was 32.5 µM in the series with Norovirus [2]; over 100 µM in the series on Norovirus [3]; 47.8 µM in the series with Norovirus [4]; 28.2 µM with Norovirus [5]; 53 µM in the series on Norovirus [6]; over 100 µM in the series with Norovirus [8]. The EC50 was over 100 µM in the series with Norovirus [9] and 12.8 µM in the series with Norovirus [11]. This compound also displayed an inhibition at 12.8 µM in the series on Norovirus [17] of 54.3%. In series [10], the concentration in solution (solubility) was 400 µM (≈ 107 µg/mL).
The compound `O=C(C(=O)c1ccc(C(=O)c2ccc(C(=O)C(=O)c3ccc(Sc4ccccc4)cc3)cc2)cc1)c1ccc(Sc2ccccc2)cc1` gave a CC50 in series [1] of 263 µM. Also, the EC50 is 35.3 µM with Norovirus [2]; over 100 µM with Norovirus [3]; over 100 µM with Norovirus [4]; 26.1 µM in the series on Norovirus [5]; over 100 µM in the series with Norovirus [6]; over 100 µM in the series with Norovirus [8]. Besides, the EC50 in the series on Norovirus [9] is over 100 µM; in the series with Norovirus [11], 12.8 µM. The compound also had an inhibition at 12.8 µM in the series with Norovirus [17] of 46.1%. The compound further yielded a solubility in series [10] of 400 µM (≈ 265 µg/mL).
For `Cc1cc(O)c(Sc2c(O)cc(C)cc2C(C)(C)c2ccccc2)c(C(C)(C)c2ccccc2)c1`, the CC50 in [1] came out at 70.6 µM. For the same compound, the EC50 in the series on Norovirus [2] was 49.5 µM; with Norovirus [3], over 100 µM; in the series with Norovirus [4], over 100 µM; with Norovirus [5], 48.1 µM; in the series on Norovirus [6], over 100 µM; in the series with Norovirus [8] it was over 100 µM. For the same compound, the values for the EC50 with Norovirus [9] and with Norovirus [11] were over 100 µM and 13.6 µM, respectively. In the series with Norovirus [18], this compound gave an inhibition at 13.6 µM of 48.9%. Besides, the solubility in series [10] amounted to 400 µM (≈ 193 µg/mL).
For the compound `CCOC(=O)C1=C(C)OC(N)=C(C#N)C1c1ccc(OCc2ccc(C)cc2)c([N+](=O)[O-])c1` (stereo not drawn), in series [1], it took 78.6 µM to reach half-maximal cytotoxicity (CC50). The EC50 worked out at 18.6 µM with Norovirus [2]; 16.5 µM in the series with Norovirus [3]; 24.5 µM with Norovirus [4]; 11.9 µM with Norovirus [5]; 22.9 µM with Norovirus [6]; 13.3 µM with Norovirus [8]. In addition, the EC50 in the series with Norovirus [9] was over 100 µM; in the series on Norovirus [11], 4.8 µM. In series [10], this compound had a solubility of 400 µM (≈ 180 µg/mL). Moreover, the inhibition at 4.8 µM in the series with Norovirus [19] came to 61.1%.
With `CCCc1ccc(OCc2ccc(C(=O)N/N=C/c3ccc(Cl)cc3O)o2)cc1`, it took 46.7 µM to reach half-maximal cytotoxicity in series [1] (CC50). For the same compound, the EC50 in the series on Norovirus [2] was 13.5 µM; in the series on Norovirus [3], over 100 µM; in the series with Norovirus [4], 36.3 µM; with Norovirus [5] it was 7.2 µM; in the series on Norovirus [6], 18.2 µM; in the series with Norovirus [8], over 100 µM. In addition, the EC50 with Norovirus [9] is over 100 µM; in the series with Norovirus [11], 9.1 µM. For the same compound, testing at 9.1 µM in the series on Norovirus [20] gave an inhibition of 62.9%. In series [10], this compound had a solubility of 400 µM (≈ 165 µg/mL).
As for `Oc1ccc(/C=N/c2nccs2)c(O)c1`, in the series on Norovirus [21], the inhibition at 9.6 µM was found to be 45.3%. Besides, in series [1], the cytotoxic concentration (CC50) came out at 324 µM. The EC50 in the series on Norovirus [2] was 26 µM; with Norovirus [3], over 100 µM; in the series on Norovirus [4] it was over 100 µM; with Norovirus [5], 7.6 µM; in the series on Norovirus [6], over 100 µM; with Norovirus [8], over 100 µM. For the same compound, the EC50 was over 100 µM with Norovirus [9] and 9.6 µM with Norovirus [11]. In series [10], this compound showed a solubility of 400 µM (≈ 88.1 µg/mL).
Compound `C=C(SCCNC(=O)NCCCCCCNC(=O)NCCSc1ccccc1O)/C(C)=C\C` yielded a CC50 in series [1] of 113 µM. For the same compound, the EC50 with Norovirus [2] is 13.1 µM; with Norovirus [3], over 100 µM; in the series on Norovirus [4], 22.6 µM; in the series with Norovirus [5], 14.2 µM; in the series on Norovirus [6] it was 14.1 µM; with Norovirus [8], over 100 µM. The EC50 with Norovirus [9] is over 100 µM; with Norovirus [11], 8.1 µM. In the series with Norovirus [22], this compound displayed an inhibition at 8.1 µM of 59.3%. Further, in series [10], the concentration in solution (solubility) was 400 µM (≈ 198 µg/mL).
